ChEMBL document CHEMBL5523736, “The First Discovery of Marine Polyoxygenated Cembranolides as Potential Agents for the Treatment of Ulcerative Colitis” (J Med Chem, 2024)
The source made the active and inactive calls. No cut-off for these calls is given here.

Columns and labels:
RAW264.7 [1] = test: Antiinflammatory activity in LPS-induced mouse RAW264.7 cells assessed as reduction in IL-1beta mRNA expression level at 20 uM by qRT-PCR analysis; format: functional, cell-based
RAW264.7 [2] = test: Antiinflammatory activity in mouse RAW264.7 cells assessed as inhibition of LPS-induced NO production at 20 uM incubated for 24 hrs relative to control; format: functional
RAW264.7 [3] = test: Antiinflammatory activity in LPS-induced mouse RAW264.7 cells assessed as reduction in IL-6 mRNA expression level at 20 uM by qRT-PCR analysis; format: functional, cell-based
RAW264.7 [4] = test: Antiinflammatory activity in mouse RAW264.7 cells assessed as inhibition of LPS-induced NO production incubated for 24 hrs; format: functional, cell-based; conditions: RAW264.7, 24 h
RAW264.7 [5] = test: Antiinflammatory activity in LPS-induced mouse RAW264.7 cells assessed as reduction in iNOS mRNA expression level at 20 uM by qRT-PCR analysis; format: functional, cell-based
[6] = Cytotoxicity against mouse RAW264.7 cells assessed as cell viability at 20 uM incubated for 24 hrs by CCK8 assay relative to control; format: toxicity, cell-based; conditions: read-out: Activity
RAW264.7 [7] = test: Antiinflammatory activity in LPS-induced mouse RAW264.7 cells assessed as reduction in TNF-alpha mRNA expression level at 20 uM by qRT-PCR analysis; format: functional, cell-based

Row | IC50 (RAW264.7 [4]) [µM] | SMILES | Activity (RAW264.7 [1]) | inhibition at 20 µM (RAW264.7 [2]) [%] | Activity (RAW264.7 [3]) | Activity (RAW264.7 [5]) | viability at 24 h, 20 µM [6] [%] | Activity (RAW264.7 [7])
1 | 9.48 | C=C1C(=O)O[C@]2(C)CC[C@@H]1C[C@H](O)[C@@]1(C)CC[C@H](OC(C)=O)[C@@](C)(CCC2=O)O1 [QUERCIFORMOLIDE A] | – | 85.1 | – | – | 94.1 | –
2 | – | C=C(C(=O)OC)[C@@H]1CC[C@@](C)(O)[C@@H](OC(C)=O)CC/C(C)=C/C/C=C(\C)[C@H](O)C1 | – | 55.7 | – | – | 89.2 | –
3 | – | C=C(C(=O)OC)[C@@H]1CC[C@@](C)(O)C(=O)CC[C@](C)(O)/C=C/C[C@]2(C)O[C@H]2C1 | – | 29.1 | – | – | 98.1 | –
4 | – | C=C1C(=O)O[C@]2(C)CC[C@@H]1C[C@H](O)[C@@]1(C)CC[C@H](O1)C(=C)CCC2=O | – | 34 | – | – | 89.5 | –
5 | 13.1 | C=C1C(=O)O[C@]2(C)CC[C@@H]1C[C@@H]1O[C@@]1(C)CC/C=C(\C)CC[C@H]2O | – | 86.7 | – | – | 92.8 | –
6 | – | C=C1C(=O)O[C@]2(C)CC[C@@H]1C[C@H](O)[C@@]1(C)CC/C=C(/CCC2=O)COO1 | – | 34.4 | – | – | 94.5 | –
7 | 1.59 | C=C1C(=O)O[C@]2(C)CC[C@@H]1C[C@@H]1O[C@@]1(C)CC[C@@H]1O[C@]1(C)CC[C@H]2OC(C)=O | Active | 141 | Active | Active | 92.7 | Active
8 | – | C=C1C(=O)O[C@]2(C)CC[C@@H]1C[C@@H]1O[C@@]1(C)C/C=C/[C@@](C)(OO)CCC2=O | – | 48.7 | – | – | 93.7 | –
9 | – | C=C(C(=O)OC)[C@@H]1CC[C@@](C)(O)[C@@H]2CC[C@@](C)(O2)[C@@H](OC(C)=O)CC[C@]2(C)O[C@H]2C1 [DENDRONPHOLIDE G] | – | -49 | – | – | 83 | –
10 | – | C=C1C(=O)O[C@]2(C)CC[C@@H]1C[C@H](O)[C@@]1(C)CC[C@H](O1)[C@](C)(O)CCC2=O | – | 43 | – | – | 102 | –
11 | 3.61 | C=C1C(=O)O[C@]2(C)CC[C@@H]1C[C@@H]1O[C@@]1(C)CC/C=C(\C)CC[C@@H]2O [SINULARIOLIDE] | Active | 108 | Active | Active | 83.3 | Active
12 | – | C=C1C(=O)O[C@]2(C)CC[C@@H]1C[C@H](O)[C@@]1(C)CC[C@H](O1)[C@](C)(O)CC[C@H]2OC(C)=O [QUERCIFORMOLIDE B] | – | 16.3 | – | – | 103 | –
13 | – | C=C1C(=O)O[C@]2(C)CC[C@@H]1C[C@@H]1O[C@@]1(C)CC[C@H](OC(C)=O)[C@@]1(C)CC[C@@H]2O1 | – | 36.7 | – | – | 103 | –
14 | – | C=C(C(=O)OC)[C@@H]1CC[C@@](C)(O)C(=O)CC/C(C)=C/CC[C@]2(C)O[C@H]2C1 | – | 35.7 | – | – | 116 | –

Row | SMILES | IC50 (RAW264.7 [4]) [µM] | Activity (RAW264.7 [1]) | inhibition at 20 µM (RAW264.7 [2]) [%] | Activity (RAW264.7 [3]) | Activity (RAW264.7 [5]) | viability at 24 h, 20 µM [6] [%] | Activity (RAW264.7 [7])
15 | C=C1C(=O)O[C@]2(C)CC[C@@H]1C[C@H]1O[C@@]1(C)C/C=C/[C@](C)(OO)CC[C@H]2O | 0.84 | Active | 124 | Active | Active | 108 | Active
